Source: US20220064167A1, “IMIDAZO-PYRAZOLE CARBOXAMIDE DERIVATIVES AS ANTICANCER AGENTS AND THE SYNTHESIS THEREOF” (AVIDIN KFT., priority 2018, published 2022)

Tests used:
[1] = test system: human primary fibroblasts; assay: resazurin viability assay on primary fibroblasts, Example 103 (FIG. 1); type: cell-based; settings: 72 h incubation, applied concentration range 1.6 nM-5 μM
Source text: To obtain primary human fibroblasts healthy volunteers (age 18-60 years) were enrolled into the study. The punch biopsies were taken from healthy subjects from the breast area undergoing plastic surgery. Primary fibroblasts were obtained from the skin by enzymatic digestion according to a standard protocol. Skin specimens were first washed in Salsol A solution (Human Rt, Gödöllö, Hungary) supplemented with 2% antibiotic/antimycotic solution (Sigma-Aldrich). Skin samples were then cut into narrow strips and incubated in Dispase solution (Roche Diagnostics, Mannheim, Germany) overnight at 4° C. The epidermis was subsequently separated from the dermis. Fibroblasts were obtained by incubating the dermis in Digestion Mix solution (Collagenase, Hyaluronidase and Deoxyribonuclease) for 2h at 37° C. Cell suspensions were filtered through a 100 μm nylon mesh (BD Falcon, San Jose, Calif., USA) and cells were pelleted by centrifugation. Fibroblasts were grown in low glucose DMEM medium containing 5% FBS, 1% antibiotic/antimycotic (PAA, Pasching, Austria) and 1% L-glutamine solution (PAA). Fibroblasts were cultured at 37° C. and 5% CO2 in humidified conditions. Depending on the cell growth, the medium was changed every 2-4 days and cells were passaged at 80% of confluence.
The human primary fibroblasts (6000 cells/well) and Hl60 cells (20.000 cells/well) were seeded into 96-well plates (Corning Life Sciences) in media. Fibroblasts were cultured overnight before treatment. […] Resazurin reagent was prepared and used as described in Example 1.
Viability was calculated with relation to untreated control cells and blank wells containing media without cells. IC50 values (50% inhibiting concentration) were calculated by GraphPad Prism® 5.

Bcl-xl in HL-60 cells = assay: flow cytometry of Bcl-xl bright cells (FIG. 2A); type: cell-based, human; settings: HL-60, 40 nM, 200 nM and 1 μM, 24 h
Procedure: (§1) Human promyelocytic leukemia HL60 Cells (500,000/well) were plated in 24-well tissue culture plates (Corning Life Sciences) in RPMI 10% FCS (Gibco) and were treated with the compounds described in Example 60 and 83 at 40 nM, 200 nM and 1 μM concentrations in 500 μl media. After 24 h incubation time cells with the corresponding supernatants were harvested and centrifuged down (2000 rpm, 5 min).
(§2) Pellets were resuspended and fixed in 3.5% PBS buffered formaldehyde (Molar Chemicals) for 10 minutes. Cells were washed with FACS-buffer (2% FCS, (Gibco) in PBS), centrifuged down (2000 rpm, 5 min). Cells were permeabilized in Permeability buffer (1% FCS, 0.1% saponin (Sigma-Aldrich) in PBS pH 7.4) for 5 minutes. Cells were washed with FACS buffer (2% FCS, (Gibco) in PBS), centrifuged (2000 rpm, 5 min). The following primary antibodies were used: Bcl-xl-Alexa 488, (Cell Signaling, cat. numb. 2767S), dilution 1:75, 24 h; pAkt-Alexa Fluor 488, (Ser473), (Cell Signaling, cat. numb, 4071), dilution 1:50, 24 or 72h; After incubation for 1h at 4° C. samples were washed two times with FACS buffer. […] In order to calculate the signal to noise ratio mean fluorescent intensity (MFI) was calculated by the following equation: =POWER(10; (Medianstained−Median unstained, untreated)/Chd), where Chd means 256, the number of channels per decade (Fajka-Boja et al. 2002; Sharrow 2001) in Microsoft Excel. […]

HL-60 cells = assay: Annexin V / propidium iodide apoptosis assay (FIG. 4); type: cell-based, human; settings: HL-60, 40 nM, 200 nM and 1 μM, 24 h
Procedure: Cells (200,000/well) were plated in 24-well tissue culture plates (Corning Life Sciences) and treated with the compounds described in Example 60 and 83 at 40 nM, 200 nM and 1 μM concentrations in 500 μl media. After 24 h cells were harvested with the corresponding supernatant and centrifuged down (2000 rpm, 5 min). Pellets were resuspended in Annexin V binding buffer (0.01 M HEPES, 0.14 M NaCl and 2.5 mM CaCl2). Annexin V-Alexa Fluor® 488 (Life Technologies, 2.5:100) was added to the cells, which were then kept for 15 min in the dark at room temperature. Before the acquisition propidium iodide (10 μg/ml, Sigma-Aldrich) was added in Annexin V binding buffer to dilute Annexin V-Alexa Fluor® 488 5×. Cells (20.000 events) were analyzed on a FACSCalibur flow cytometer using CellQuest software (Becton Dickinson). The percentage of the FL1 (530/30 nm filter, Annexin V-Alexa Fluor® 488) positive and FL3 (670 nm filter, propidium iodide) negative early apoptotic cells and FL1 positive and FL3 positive late apoptotic cells were determined. The total apoptotic population included both early and late apoptotic cells. Column charts were created by GraphPad Prism® 5. Results are depicted in FIG. 4. […] We could detect AnnexinV^+/PI^− early and AnnexinV^+/PI^+ late apoptotic cell populations after 24 h of treatment.

[2] = test system: active caspase-3 in HL-60 cells; assay: caspase-3 activation by flow cytometric immunofluorescence (FIG. 5); type: cell-based, human; settings: HL-60, FIG. 5
Procedure: as §1, §2

Row | SMILES | decrease in viability of human primary fibroblasts [1] | percentage of the Bcl-xl bright cells (Bcl-xl in HL-60 cells) | AnnexinV+/PI- early and AnnexinV+/PI+ late apoptotic cell populations (HL-60 cells) | percentage of active caspase-3 positive cells [2]
1 | CC(C)(C)Nc1c(C(C)(C)C)[nH]c2c(C(=O)Nc3ccc(N)cc3)cnn12 [Example 83, N-(4-Aminophenyl)-2-(tert-butyl)-3-(tert-butylamino)-1H-imidazo[1,2-b]pyrazole-7-carboxamide] | Significant decrease in viability was not apparent | increase | accompanied by apoptosis | increased
2 | CC(C)(C)Nc1c(C(C)(C)C)[nH]c2c(C(=O)Nc3ccc(F)cc3)cnn12 [Example 60, 2-(Tert-butyl)-N-(4-fluorophenyl)-3-((tert-butyl-2-yl)amino)-1H-imidazo[1,2-b]pyrazole-7-carboxamide] | Significant decrease in viability was not apparent | increase | accompanied by apoptosis | increased
